The supplement of paper PMC13380429

What was measured:
Settings in all cases: 72 h
HepG2 [1] = assay: relative viability EC50 (midpoint between 100% and the lowest measured viability); higher = less toxic
HepG2 [2] = assay: drug sensitivity score (DSS) for viability; higher = more toxic; extreme values may be limits of the assay
HepG2 [3] = assay: cell viability relative to DMSO; higher = less toxic
U2OS [4] = assay: relative viability EC50 (midpoint between 100% and the lowest measured viability); higher = less toxic
Calu-3 [5] = assay: as above
Vero E6 [6] = assay: drug sensitivity score (DSS) for viability; higher = more toxic; extreme values may be limits of the assay
U2OS [7] = assay: as above
Calu-3 [8] = assay: as above
Caco-2 [9] = assay: as above
Vero E6 [10] = assay: cell viability relative to DMSO; higher = less toxic
U2OS [11] = assay: as above
Calu-3 [12] = assay: as above
Caco-2 [13] = assay: as above
Vero E6 [14] = assay: relative viability EC50 (midpoint between 100% and the lowest measured viability); higher = less toxic

| SMILES | relative viability EC50 (HepG2 [1]) [µM] | drug sensitivity score (HepG2 [2]) | cell viability (HepG2 [3]; 1 nM) [%] | cell viability (HepG2 [3]; 10 nM) [%] | cell viability (HepG2 [3]; 100 nM) [%] | cell viability (HepG2 [3]; 1000 nM) [%] | cell viability (HepG2 [3]; 10000 nM) [%] | relative viability EC50 (U2OS [4]) [µM] | relative viability EC50 (Calu-3 [5]) [µM] | drug sensitivity score (Vero E6 [6]) | drug sensitivity score (U2OS [7]) | drug sensitivity score (Calu-3 [8]) | drug sensitivity score (Caco-2 [9]) | cell viability (Vero E6 [10]; 1 nM) [%] | cell viability (Vero E6 [10]; 10 nM) [%] | cell viability (Vero E6 [10]; 100 nM) [%] | cell viability (Vero E6 [10]; 1000 nM) [%] | cell viability (Vero E6 [10]; 10000 nM) [%] | cell viability (U2OS [11]; 1 nM) [%] | cell viability (U2OS [11]; 10 nM) [%] | cell viability (U2OS [11]; 100 nM) [%] | cell viability (U2OS [11]; 1000 nM) [%] | cell viability (U2OS [11]; 10000 nM) [%] | cell viability (Calu-3 [12]; 1 nM) [%] | cell viability (Calu-3 [12]; 10 nM) [%] | cell viability (Calu-3 [12]; 100 nM) [%] | cell viability (Calu-3 [12]; 1000 nM) [%] | cell viability (Calu-3 [12]; 10000 nM) [%] | cell viability (Caco-2 [13]; 1 nM) [%] | cell viability (Caco-2 [13]; 10 nM) [%] | cell viability (Caco-2 [13]; 100 nM) [%] | cell viability (Caco-2 [13]; 1000 nM) [%] | cell viability (Caco-2 [13]; 10000 nM) [%] | relative viability EC50 (Vero E6 [14]) [µM] |
| --- | --- | --- | --- | --- | --- | --- | --- | --- | --- | --- | --- | --- | --- | --- | --- | --- | --- | --- | --- | --- | --- | --- | --- | --- | --- | --- | --- | --- | --- | --- | --- | --- | --- | --- |
| N#Cc1c(N)nc(SCc2ncc[nH]2)c(C#N)c1-c1ccc(O)cc1 [LUF-5834] | > 10 | 0 | 102 | 115 | 103 | 105 | 98.6 | – | – | – | – | – | – | – | – | – | – | – | – | – | – | – | – | – | – | – | – | – | – | – | – | – | – | – |
| O[C@@H](COc1cccc2ncccc12)CN1CCN([C@@H]2c3ccccc3[C@@H]3[C@H](c4ccccc42)C3(F)F)CC1 [zosuquidar] | – | 3 | 104 | 98.8 | 95.6 | 92.4 | 63.1 | > 10 | > 10 | 1.3 | 1.1 | 0.1 | 3.6 | 104 | 105 | 98.7 | 98.5 | 72.6 | 99 | 99.4 | 99.4 | 98.2 | 76.2 | 102 | 108 | 91.5 | 96.1 | 85.7 | 99.5 | 102 | 87.8 | 90.2 | 55.2 | – |
| COc1ccc(CCCO[C@@H](Cn2ccnc2)c2ccc(OC)cc2)cc1 | 3.59 | 3.2 | 101 | 104 | 95.4 | 106 | 34 | 3.1 | – | 2.9 | 3.6 | – | 3.6 | 94.5 | 104 | 96.5 | 98 | 50.1 | 97.4 | 96.7 | 99.3 | 99.4 | 35.9 | – | – | – | – | – | 93.4 | 95 | 100 | 93.5 | 52.6 | – |
| C=CC(=O)Nc1cccc(Nc2nc(Nc3ccc(N4CCN(C(C)=O)CC4)cc3OC)ncc2C(F)(F)F)c1 [rociletinib] | 1.38 | 5.3 | 106 | 96.1 | 90.2 | 79.2 | 42.3 | 2.03 | 0.822 | 0.3 | 6.6 | 10 | 3.1 | 105 | 99.7 | 99.4 | 101 | 83 | 100 | 93.9 | 101 | 88 | 16.7 | 95.6 | 88.6 | 88.3 | 57.8 | 16.6 | 97.4 | 95.9 | 98.3 | 92.3 | 62.6 | > 10 |
| CCCCCCCCOc1ccccc1C(=O)Nc1ccc(C(=O)OCC[N+](C)(CC)CC)cc1 [otilonium] | > 10 | 0.7 | 109 | 96.2 | 108 | 96 | 83.8 | > 10 | > 10 | 0 | 0 | 0 | 1.4 | 103 | 97.2 | 106 | 97.8 | 94.1 | 101 | 106 | 98 | 101 | 90.7 | 97 | 104 | 91.1 | 96.7 | 89.3 | 89.1 | 99.4 | 97 | 97.5 | 74.7 | > 10 |
| CCOC(=O)[C@H](CCc1ccccc1)N[C@@H](C)C(=O)N1[C@H](C(=O)O)C[C@@H]2CCC[C@@H]21 [ramipril] | – | 0 | – | – | – | – | – | – | – | 0 | 0 | 0 | – | – | – | – | – | – | – | – | – | – | – | – | – | – | – | – | – | – | – | – | – | – |
| Cc1cccc(C)c1OCC(C)N (centres undefined) [mexiletine] | – | 0.1 | – | – | – | – | – | – | – | 0 | 0 | 0 | – | – | – | – | – | – | – | – | – | – | – | – | – | – | – | – | – | – | – | – | – | – |
| CC(C)c1noc(N2CCC(COc3ccc(-c4ccc(S(C)(=O)=O)cc4)nc3)CC2)n1 | – | 2.9 | 97.1 | 106 | 109 | 97.3 | 50.9 | > 10 | > 10 | 0 | 0 | 0 | 1.8 | 98 | 100 | 98.8 | 89.3 | 103 | 99.3 | 94.1 | 97.6 | 100 | 101 | 96.4 | 101 | 92.4 | 94.4 | 106 | 92.5 | 93.5 | 101 | 95.6 | 72.5 | > 10 |
| NC12CC3CC(CC(C3)C1)C2 [amantadine] | – | 0 | – | – | – | – | – | – | – | 0 | 0 | 0 | – | – | – | – | – | – | – | – | – | – | – | – | – | – | – | – | – | – | – | – | – | – |
| Cc1[nH]nc(C(F)(F)F)c1Cc1sc2c(c1C(=O)N1C[C@](C)(O)CO1)c(=O)n(C)c(=O)n2C(C)C [AZD3965] | > 10 | 0 | 99.4 | 89.2 | 99.3 | 93.3 | 101 | > 10 | > 10 | 0 | 0.6 | 0 | 10.1 | 99.8 | 97.5 | 101 | 92.9 | 97.4 | 99.8 | 95.3 | 89 | 92 | 89.2 | 93.6 | 101 | 101 | 103 | 107 | 92.9 | 79.5 | 74.9 | 72 | 76.5 | > 10 |
| O=C(C1CCCCC1)N1CC(=O)N2CCc3ccccc3C2C1 (centres undefined) [praziquantel] | > 10 | 1 | 107 | 90.7 | 107 | 94.3 | 82.3 | > 10 | > 10 | 0 | 0 | 0 | 0.9 | 103 | 102 | 106 | 99.1 | 106 | 99 | 104 | 100 | 101 | 97.5 | 102 | 96.9 | 104 | 98.9 | 91.7 | 109 | 112 | 100 | 109 | 70.7 | > 10 |
| CCC[C@@H]1C[C@@H](C(=O)N[C@@H]([C@H]2O[C@H](SC)[C@H](OP(=O)(O)O)[C@@H](O)[C@H]2O)[C@H](C)Cl)N(C)C1 [Clindamycin phosphate] | – | 0 | – | – | – | – | – | – | – | 0 | 0 | 0 | – | – | – | – | – | – | – | – | – | – | – | – | – | – | – | – | – | – | – | – | – | – |
| C[C@]12CC[C@@H]3c4ccc(OC(=O)c5ccccc5)cc4CC[C@H]3[C@@H]1CC[C@@H]2O [estradiol-benzoate] | > 10 | 0 | 104 | 118 | 103 | 105 | 97.8 | > 10 | > 10 | – | 0 | 0 | – | – | – | – | – | – | 108 | 105 | 106 | 103 | 99.8 | 101 | 96.4 | 98.6 | 94.3 | 88.6 | – | – | – | – | – | – |
| C=CC(=O)c1ccc2ccccc2c1 [JAK3-inhibitor-V] | > 10 | 0 | 106 | 108 | 98.8 | 110 | 110 | – | > 10 | 0 | – | 0 | – | 99.5 | 107 | 99.8 | 104 | 101 | – | – | – | – | – | 110 | 97.3 | 111 | 94.8 | 96.6 | – | – | – | – | – | > 10 |
| C[C@@H]1CCCN1CCc1cc2cc(-c3ccc(C#N)cc3)ccc2o1 [ABT-239] | > 10 | 1.4 | 105 | 92.9 | 94.8 | 90.9 | 75.9 | > 10 | – | 0 | 0.1 | 1.5 | 1.9 | 89.8 | 94.9 | 92 | 91.2 | 91.8 | 96.3 | 101 | 97.9 | 102 | 87 | 95.5 | 96.1 | 106 | 111 | 58.9 | 86.8 | 106 | 93.4 | 97.2 | 68.1 | > 10 |
| CC1(N)CCN(c2cnc(-c3cccc(Cl)c3Cl)c(N)n2)CC1 [SHP099] | > 10 | 0.2 | 91.2 | 84.8 | 103 | 93.5 | 82 | > 10 | – | 1.6 | 0 | 3.9 | 3.6 | 103 | 93.2 | 106 | 92.2 | 78.9 | 93.8 | 95.4 | 91.9 | 98.4 | 90.2 | 101 | 98.3 | 104 | 82.2 | 64.7 | 94.1 | 113 | 90.9 | 91.9 | 56.4 | > 10 |
| C#Cc1cccc(Nc2ncnc3cc(OCCOC)c(OCCOC)cc23)c1 [erlotinib] | – | 2.4 | 108 | 122 | 104 | 97.8 | 58.2 | > 10 | 0.453 | 7.1 | 0.4 | 10.6 | 4.7 | 111 | 104 | 92 | 73.4 | 26.8 | 96.7 | 96.4 | 94.2 | 93.5 | 82.9 | 107 | 109 | 86.2 | 52 | 30.1 | 105 | 92.5 | 98.2 | 79.7 | 54.2 | 1.36 |
| CC(C)c1cc2c(cc1S(=O)(=O)O)[C@@]1(C)CCC[C@@](C)(C(=O)O)[C@@H]1CC2 [ecabet] | > 10 | 0 | 105 | 110 | 93.8 | 112 | 104 | > 10 | > 10 | 0 | 0 | 0 | – | 96.4 | 96.1 | 96.9 | 96.9 | 107 | 96.7 | 93.7 | 99.1 | 95 | 103 | 109 | 107 | 112 | 110 | 99.5 | – | – | – | – | – | > 10 |
